Source: patent publication US8354451B2, “Treatment of microbial infections with compounds that inhibit 4-hydroxyphenylpyruvate dioxygenase” (The UWM Research Foundation, Inc., priority 2009, dated 2013)
Like-named read-outs stand apart in the source and are kept apart here.

How the values were obtained:
[1] = test system: B. cenocepacia C5424; assay type: cell-based, Burkholderia cenocepacia; conditions: 24 h culture, OD597
[2] = test system: Pseudomonas aeruginosa; assay: Murine model of systemic infection, intraperitoneal; conditions: 1 mg/Kg NTBC daily

In the case of `O=C1CCCC(=O)C1C(=O)c1ccc(C(F)(F)F)cc1[N+](=O)[O-]` [NTBC, 2-(2-nitro-4-trifluoromethylbenzoyl)-1,3-cyclohexanedione], the “pigment production relative to untreated C5424” value ([1]; 10 μM NTBC) is reported as 31.95±3.96%, the “pigment production relative to untreated C5424” value ([1]; 100 μM NTBC) is reported as 26.89±0.59% and the “time to return to normal growth (weight) after administration” value [2] is reported as no more than 24 h. The “survival rate versus infected untreated mice” value ([2]; 3.2×10^8 CFU P. aeruginosa) was “three-fold higher survival rate”.
